The source of these data is US9115127B2 (AMGEN INC., priority 2010, dated 2015).

Some results are limits rather than exact numbers.

Usually IC50 stands for the concentration that inhibits the measured activity by half. Low values mean greater potency in that assay, high ones weaker potency in that assay.

T1 sequence (Q9UM73 1058-1620): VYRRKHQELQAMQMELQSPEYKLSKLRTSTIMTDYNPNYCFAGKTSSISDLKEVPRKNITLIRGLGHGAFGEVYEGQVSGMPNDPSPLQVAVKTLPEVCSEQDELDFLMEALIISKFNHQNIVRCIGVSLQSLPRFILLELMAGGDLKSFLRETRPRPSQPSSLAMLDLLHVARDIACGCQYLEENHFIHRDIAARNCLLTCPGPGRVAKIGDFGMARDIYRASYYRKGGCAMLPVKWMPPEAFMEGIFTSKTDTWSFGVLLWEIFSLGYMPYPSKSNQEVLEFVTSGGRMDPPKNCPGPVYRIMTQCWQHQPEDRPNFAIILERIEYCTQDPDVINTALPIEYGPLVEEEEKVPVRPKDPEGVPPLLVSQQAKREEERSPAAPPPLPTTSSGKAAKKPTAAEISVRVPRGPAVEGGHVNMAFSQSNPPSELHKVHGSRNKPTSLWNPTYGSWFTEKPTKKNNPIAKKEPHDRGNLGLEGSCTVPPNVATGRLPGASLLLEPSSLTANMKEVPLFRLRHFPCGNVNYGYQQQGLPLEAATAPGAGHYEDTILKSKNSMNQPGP

The test has as its target T1, wild-type human ALK (cytoplasmic domain, amino acids 1058-1620, N-terminal GST fusion) (Homo sapiens, UniProt Q9UM73).
T1 construct: The cytoplasmic domain (amino acids 1058-1620) of wild-type human ALK; GST (N); made in house; host or cells: SF9 insect cells
The experiment in a line: ALK Inhibition in Enzyme Assay (Lance TR-FRET kinase assay). Type of test: biochemical. The method, boiled down: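 TR-FRET read-out (Eu-W1024 PT66 anti-phosphotyrosine plus streptavidin-allophycocyanin, 320 nm excitation) quantified biotinylated peptide phosphorylation by the purified kinase. Reaction ran 90 minutes at room temperature before quenching with 20 mM EDTA in Tris pH 7.5 buffer with NaCl, BSA and Tween-20.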
(In general: TR-FRET usually uses a lanthanide donor and a delayed reading to cut background.)
For the compound `CC(C)NC(=O)[C@H]1CC[C@@H](n2/c(=N/C(=O)c3ccc(F)cc3)[nH]c3cnc(OCCO)cc32)CC1` [Example 127, (E)-4-Fluoro-N-(6-(2-hydroxyethoxy)-1-(cis-4-(isopropylcarbamoyl)cyclohexyl)-1H-imidazo[4,5-c]pyridin-2(3H)-ylidene)benzamide], the IC50 is < 50 nM.
`CC(C)NC(=O)[C@H]1CC[C@@H](n2/c(=N/C(=O)c3ccc(C(F)(F)F)cc3)[nH]c3cnc(OCCN4CCCCC4)cc32)CC1` [Example 102, (E)-N-(1-(cis-4-(Isopropylcarbamoyl)cyclohexyl)-6-(2-(piperidin-1-yl)ethoxy)-1H-imidazo[4,5-c]pyridin-2(3H)-ylidene)-4-(trifluoromethyl)benzamide]: the IC50 lay in the range of 100 to 1000 nM.
The compound `CC(C)CCNC(=O)[C@H]1CC[C@@H](n2/c(=N/C(=O)c3ccc(F)cc3)[nH]c3ccc(CN4CCCCC4)cc32)CC1` [Example 40, (E)-4-Fluoro-N-(1-(cis-4-(isopentylcarbamoyl)cyclohexyl)-6-(piperidin-1-ylmethyl)-1H-benzo[d]imidazol-2(3H)-ylidene)benzamide] gave an IC50 of 50 to 100 nM.
In the case of `CC(C)NC(=O)[C@H]1CC[C@@H](n2/c(=N/C(=O)c3cccc(C(F)(F)F)c3)[nH]c3cnc(OCCN4CCCCC4)cc32)CC1` [Example 92, (E)-N-(1-(cis-4-(Isopropylcarbamoyl)cyclohexyl)-6-(2-(piperidin-1-yl)ethoxy)-1H-imidazo[4,5-c]pyridin-2(3H)-ylidene)-3-(trifluoromethyl)benzamide], the IC50 is < 50 nM.
Regarding `C[C@@H]1CN(C(=O)OC(C)(C)C)CCN1C(=O)[C@H]1CC[C@@H](n2/c(=N/C(=O)c3ccc(F)cc3)[nH]c3cnc(OCCN4CCCCC4)cc32)CC1` [Example 56, (R)-tert-Butyl 4-(cis-4-((E)-2-(4-fluorobenzoylimino)-6-(2-(piperidin-1-yl)ethoxy)-2,3-dihydro-1H-imidazo[4,5-c]pyridin-1-yl)cyclohexanecarbonyl)-3-methylpiperazine-1-carboxylate], the IC50 was 100 to 1000 nM.
`O=C(/N=c1\[nH]c2cnc(OCCN3CCCCC3)cc2n1C1CCNCC1)c1ccccc1` [Example 65, (E)-N-(6-(2-(Piperidin-1-yl)ethoxy)-1-(piperidin-4-yl)-1H-imidazo[4,5-c]pyridin-2(3H)-ylidene)benzamide] showed an IC50 of 1000 to 5000 nM.
Turning to `CC(C)(O)C1CCN(Cc2ccc3[nH]/c(=N\C(=O)c4ccc(F)cc4)n([C@H]4CC[C@]5(CC4)NC(=O)NC5=O)c3c2)CC1` [Example 242, (E)-N-(1-((5S,8S)-2,4-Dioxo-1,3-diazaspiro[4.5]decan-8-yl)-6-((4-(2-hydroxypropan-2-yl)piperidin-1-yl)methyl)-1H-benzo[d]imidazol-2(3H)-ylidene)-4-fluorobenzamide], the IC50 lay in the range of 100 to 1000 nM.
With `CC(C)(O)C1CCN(CCOc2cc3c(cn2)[nH]/c(=N\C(=O)c2cccc(F)c2)n3[C@H]2CC[C@@H](C(=O)O)CC2)CC1` [Example 79, cis-4-((E)-2-(3-Fluorobenzoylimino)-6-(2-(4-(2-hydroxypropan-2-yl)piperidin-1-yl)ethoxy)-2,3-dihydro-1H-imidazo[4,5-c]pyridin-1-yl)cyclohexanecarboxylic acid], the IC50 was 1000 to 5000 nM.
In the case of `CC(C)NC(=O)[C@H]1CC[C@@H](n2/c(=N/C(=O)c3ccc(F)cc3)[nH]c3ccc(CN4CCC(CNCC(F)(F)F)CC4)cc32)CC1` [Example 190, (E)-4-Fluoro-N-(1-(cis-4-(isopropylcarbamoyl)cyclohexyl)-6-((4-((2,2,2-trifluoroethylamino)methyl)piperidin-1-yl)methyl)-1H-benzo[d]imidazol-2(3H)-ylidene)benzamide], the IC50 was < 50 nM.
As for `CC(C)NC(=O)[C@H]1CC[C@@H](n2/c(=N/C(=O)c3cccc(F)c3)[nH]c3cnc(OCCN4CCCCC4)cc32)CC1` [Example 108, (E)-3-Fluoro-N-(1-(cis-4-(isopropylcarbamoyl)cyclohexyl)-6-(2-(piperidin-1-yl)ethoxy)-1H-imidazo[4,5-c]pyridin-2(3H)-ylidene)benzamide], the IC50 was < 50 nM.
